In article PMC12040169 (PLOS Biology, 2025):

assay: in vitro; details: human, hela cells, % viability

SMILES	viability at 28.5 h, 10 µM
Cc1nc(CN2CCCN(C(=O)c3cccc(C#N)c3)CC2)cs1 [CBK305363]	83.6%
COc1ccc(CN2CCCN(C(=O)c3ccnc(Cl)c3)CC2)cc1 [CBK305364]	85.4%
CN(Cc1ccncc1)C(=O)c1cccc(S(=O)(=O)NCC2CC2)c1 [CBK305365]	95.6%
COCCN(Cc1cn2cccc(C(=O)OC)c2n1)Cc1ccco1 [CBK305366]	97.8%
Cc1cc(N2CCN(C(=O)CCc3ccco3)CC2)nc(C(C)C)n1 [CBK305367]	106%
Cn1cc(CN2CCCN(C(=O)c3ccc4ccccc4n3)CC2)cn1 [CBK305369]	102%
COc1ccc(CCNC(=O)CN2CCCC2c2cnn(C)c2)cc1 (stereo not shown) [CBK305371]	84.2%
CCn1cc(CN2CCCN(C(=O)c3cccn(C)c3=O)CC2)cn1 [CBK305375]	106%
COc1cccc(C(=O)NCCC(=O)N2CCc3sccc3C2)c1 [CBK305376]	108%
CC(=O)NC(CC(=O)N1CCc2sccc2C1C)c1ccc(C)cc1 (stereo not shown) [CBK305378]	89.2%
CCN(Cc1ccccn1)C(=O)NC(C)c1cccc(NC(C)=O)c1 (stereo not shown) [CBK305380]	92.9%
Cc1nc(C2CN(Cc3cc4ccccc4nc3Cl)CCO2)no1 (stereo not shown) [CBK305381]	96.5%
O=c1n(CCCNCc2ccc(Cl)cc2Cl)nc2n1CCCC2 [CBK305382]	97.2%
Cc1nn(C)c(C)c1OCC(=O)Nc1cc(C(C)(C)C)sc1C#N [CBK305383]	101%
Cc1nc(C2CN(Cc3ccc(Cl)c4cccnc34)CCO2)no1 (stereo not shown) [CBK305384]	102%
COc1ccc(OC)c(-n2nnnc2SCC2CCCN(C)C2)c1 (stereo not shown) [CBK305386]	84.2%
Cn1cc(-c2nc(C3CCCCCN3C(=O)c3cccnc3)no2)cn1 (stereo not shown) [CBK305387]	87.9%
Cc1cc(C)n(CC(C)CNC(=O)NCCN2CCCCCC2=O)n1 (stereo not shown) [CBK305389]	92%
Cc1nc2sccn2c1CN1CCCC(C(=O)N2CCOCC2)C1 (stereo not shown) [CBK305390]	97.6%
COCCNC(=O)c1cc(-c2ccccc2C)nc2c1cnn2C(C)C [CBK305392]	111%
Cn1cc(CCNC(=O)N2CCCN(Cc3cccs3)CC2)cn1 [CBK305393]	89.1%
COC(=O)c1ccc(N2CCN(Cc3ccc(CO)o3)C(C)C2)cc1 (stereo not shown) [CBK305394]	83.9%
COCC(=O)Nc1c[nH]nc1C1CCCN(c2cccc(F)c2C#N)C1 (stereo not shown) [CBK305395]	86%

SMILES	viability at 28.5 h, 10 µM
CC1(c2ccco2)NC(=O)N(Cc2ncc(-c3cccs3)o2)C1=O (stereo not shown) [CBK305398]	98.8%
CCOC(=O)c1cnn(C2CCCN(Cc3cc(C#N)cs3)C2)c1 (stereo not shown) [CBK305399]	101%
CCNS(=O)(=O)C1CCN(c2cc(C#N)ccc2C(F)(F)F)C1 (stereo not shown) [CBK305402]	96.2%
Cc1c(C(C)NCC(O)c2ccncc2)cnn1-c1ccc(C#N)cc1 (stereo not shown) [CBK305403]	85%
CC(C(=O)Nc1cccc(F)c1)N1CCN(Cc2cccnc2)CC1 (stereo not shown) [CBK305408]	109%
O=C(NCC1CCN(c2ccc(F)c(F)c2)C1)c1c[nH]nc1C1CC1 (stereo not shown) [CBK305409]	91%
Cc1cccc(CN2CCC(NC(=O)c3cccc4nn[nH]c34)CC2)c1 [CBK305411]	92.1%
COc1ccc(C)cc1CN(C)C(=O)c1cccc(NC(=O)C2CC2)c1 [CBK305414]	98.5%
Cc1c(CN(C)C(=O)c2cccc(NC(=O)C3CCCO3)c2)cnn1C (stereo not shown) [CBK305416]	103%
CCCCNc1cc(N2CCOC(Cn3cc(C)cn3)C2)nc(N)n1 (stereo not shown) [CBK305417]	53.3%
CCn1cc(C2CN(S(=O)(=O)c3ccc(F)c(C)c3)CCO2)cn1 (stereo not shown) [CBK305419]	91.3%
CCc1ccccc1S(=O)(=O)N1CCOC(c2cnn(CC)c2)C1 (stereo not shown) [CBK305421]	94.8%
Cc1ccc(C(F)(F)F)cc1NCc1csc(C2CCCO2)n1 (stereo not shown) [CBK305424]	92.8%
CN(Cc1ccsc1)C(=O)c1cccc(S(=O)(=O)NC(C)(C)C)c1 [CBK305425]	81.2%
CCOC(=O)C(CNS(=O)(=O)c1ccc(F)cc1C)Cc1ccccc1 (stereo not shown) [CBK305427]	92.3%
CN(Cc1cccnc1)CC1CCCN(C(=O)Nc2ccc(Cl)cc2)C1 (stereo not shown) [CBK305428]	83.9%
CCCCc1noc(C(C)S(=O)(=O)Cc2csc(CCCC)n2)n1 (stereo not shown) [CBK305431]	110%
Cc1ccc(S(=O)(=O)NC(C)(C)C)cc1C(=O)N(C)Cc1cnn(C)c1 [CBK305433]	86.9%
CC(C)Oc1ccccc1CN(C)C(C)c1ccc(S(N)(=O)=O)cc1 (stereo not shown) [CBK305436]	94.4%
CSCc1nc2ccccc2n1CC(=O)N(CCC#N)Cc1ccco1 [CBK305440]	97.7%
CC(C)(O)c1cn(C2CN(C(=O)c3sccc3-c3ccccc3)C2)nn1 [CBK305442]	87.6%
CCOC(=O)C(NCc1nc(-c2cccc(C(F)(F)F)c2)no1)C(C)C (stereo not shown) [CBK305445]	93%
Cc1c(C(=O)N2CC(n3cc(C(C)O)nn3)C2)sc2ccc(F)cc12 (stereo not shown) [CBK305446]	94.5%

SMILES	viability at 28.5 h, 10 µM
Cc1ccc(Cc2cnc(NC(=O)NCCN3CCOCC3)s2)cc1F [CBK305449]	93.6%
O=C(NCc1ccsc1)N1CCCN(Cc2ccc(Cl)cc2)CC1 [CBK305450]	86.4%
COc1ccc(C)cc1C1(CNC(=O)N2CCC(C)(O)C2)CCOCC1 (stereo not shown) [CBK305452]	102%
Cn1ccc(N2CCCC(NC(=O)c3scnc3C(C)(C)C)C2=O)n1 (stereo not shown) [CBK305453]	94.9%
CCn1nccc1N1CCCC(NC(=O)CCc2ccccc2Cl)C1=O (stereo not shown) [CBK305455]	113%
CC(C)Cn1cnc(S(=O)(=O)N2CCC(OCc3ccncc3)C2)c1 (stereo not shown) [CBK305456]	105%
Cc1nc(C)c(CNC(=O)NC2CCCN(c3ccn(C)n3)C2=O)s1 (stereo not shown) [CBK305457]	86%
CSc1nnc(CCCNC(=O)c2cccc(C#N)c2)n1C1CCCC1 [CBK305459]	80.9%
CN(C)c1ncc(CNc2nc(O)c3c(n2)CCCC3)cn1 [CBK305460]	89.3%
CN1CCC(CNS(=O)(=O)c2cccc3c2OCC3)CC1=O (stereo not shown) [CBK305465]	114%
Cn1nc(C(C)(C)C)c2cc(C(=O)N3CCn4nccc43)cnc21 [CBK305466]	93.3%
CC1(C)CC(NC(=O)c2cc3cccnc3[nH]2)CCO1 (stereo not shown) [CBK305467]	82.3%
CC(=O)Nc1cccc(-n2nnnc2SCc2cnn(C)c2)c1 [CBK305471]	101%
CCOC(=O)C(NC(=O)C1CCC(=O)N1)c1cccc(C)c1C (stereo not shown) [CBK305472]	93.8%
O=C(NC1CCN(CC(F)(F)F)CC1)c1cnc(-c2ccccc2)s1 [CBK305474]	98.4%
Cc1csc(C2CN(Cc3cn(C)c(=O)n(C)c3=O)CCO2)n1 (stereo not shown) [CBK305475]	86.6%
COCCc1ccccc1NC1CCN(c2nccs2)CC1 [CBK305476]	91.2%
COCCn1c(SC(C)C(=O)NC2CC2)nc2ccc(Br)cc2c1=O (stereo not shown) [CBK305481]	108%
Cc1ccc(CS(=O)(=O)N(C)C2CCN(C)C(C)C2)c(F)c1 (stereo not shown) [CBK305484]	90.4%
CCOc1cc(NC2CCN(C(=O)NCC(F)F)CC2)ncn1 [CBK305485]	85.6%
Cc1[nH]c2ccc(CNC(=O)NC3CCCc4cn[nH]c43)cc2c1C (stereo not shown) [CBK305488]	89.8%
Cc1nnc(CS(=O)(=O)Cc2csc(C(C)(C)C)n2)n1C1CC1 [CBK305489]	109%
Cc1c(C(=O)N2CCCCC2C(N)=O)nnn1-c1cccc(Cl)c1 (stereo not shown) [CBK305490]	106%

SMILES	viability at 28.5 h, 10 µM
Cc1cc(O)nc(C(C)N2CCCN(CC(F)(F)F)CC2)n1 (stereo not shown) [CBK305491]	88.6%
O=C(NCC1(CCO)CCOC1)c1c[nH]nc1-c1cc2ccccc2o1 (stereo not shown) [CBK305492]	103%
CC(NC(=O)CCc1cnn(C)c1)c1nc(-c2ccncc2)cs1 (stereo not shown) [CBK305496]	91.4%
Cc1nc(CCNc2ccc(-c3nc(C)c(C)c(=O)[nH]3)cn2)cs1 [CBK305497]	107%
CCOC(=O)C(Cc1ccccc1)NC(=O)c1cn[nH]c1C (stereo not shown) [CBK305499]	99.7%
COc1ccc(C)cc1-n1ccc(C(=O)NC2CCSCC2)n1 [CBK305502]	94.6%
CN(CCNC(=O)Nc1ccc2c(c1)oc(=O)n2C)C1CCCC1 [CBK305503]	95.1%
CCOc1cc(NC2CCN(C(=O)C3CCCCC3(C)C)CC2)ncn1 (stereo not shown) [CBK305505]	105%
CCOc1cc(NC2CCN(C(=O)CC3CCCCC3)CC2)ncn1 [CBK305506]	104%
Cc1nc(C)c(S(=O)(=O)Nc2ccccc2-c2nnnn2C(C)C)s1 [CBK305508]	96.3%
CC(C)n1nnnc1-c1ccccc1NS(=O)(=O)C1CC1 [CBK305509]	97.7%
Cc1cc(C)n(CC(=O)NCC(c2c(F)cccc2F)N(C)C)n1 (stereo not shown) [CBK305510]	96.7%
CCSc1nnnn1-c1cccc(NC(C)=O)c1 [CBK305511]	94.4%
Cc1cc(C(=O)CSc2ccc(Cl)nn2)c(C)n1C1CC1 [CBK305512]	99.2%
O=S1(=O)CCC(c2nnc(C3(c4ccc(Br)cc4)CCOCC3)o2)C1 (stereo not shown) [CBK305513]	115%
Cc1c(C(=O)N(C(C)C)C2CC2)nnn1-c1ccc2ncccc2c1 [CBK305518]	92.5%
Cc1c(C(=O)N2CCC(n3cncn3)CC2)sc2cccc(F)c12 [CBK305520]	103%
Cc1cc(CNC(=O)Nc2ccc(F)c(-n3nnnc3C)c2)n(C)n1 [CBK305525]	88.4%
CN(C(=O)CN1CSCC1=O)c1nc2c(s1)CC(c1ccccc1)CC2 (stereo not shown) [CBK305526]	91.6%
Cc1cc(C)c2c(OCC(=O)Nc3nc(C(N)=O)cs3)nn(C)c2n1 [CBK305530]	83.9%
CCc1cc(=O)[nH]c(-c2ccc(N3CCOCC3C)nc2)n1 (stereo not shown) [CBK305532]	95.7%
CCOc1nnc(CN(CCC(N)=O)c2ccc(F)cc2)s1 [CBK305536]	110%
